Columns and labels:
[1] = test system: PAXF2131 organoid, Pancreatic cancer; assay: 3D clonogenic assay in patient derived organoids; format: cell-based, human; details: 8 to 13 days
[2] = test system: LXFA644 organoid, NSCLC (adenocarcinoma subtype); assay: 3D clonogenic assay in patient derived organoids; format: cell-based, human; details: 8 to 13 days
[3] = test system: LXFE2478 organoid, NSCLC (squamous subtype); assay: 3D clonogenic assay in patient derived organoids; format: cell-based, human; details: 8 to 13 days
[4] = test system: PAXF1657 organoid, pancreatic cancer; assay: 3D clonogenic assay in patient derived organoids; format: cell-based, human; details: 8 to 13 days
[5] = test system: MAXFTN449 organoid, breast cancer (triple negative); assay: 3D clonogenic assay in patient derived organoids; format: cell-based, human; details: 8 to 13 days
[6] = test system: phospho-c-Jun in lung cancer-associated fibroblasts (CAF); assay: TGF-β-induced c-Jun phosphorylation (capillary western); format: cell-based; details: Homo sapiens, Fibroblast, 10 ng/mL TGF-β for 2 hours, western blot, read-out: EC50 on phospho-c-Jun levels
Protocol: (§1) Normal human lung fibroblasts (NHLF, black circle) or lung cancer-associated fibroblasts (CAF, black square) were treated with 10 ng/mL TGF-β after 1 hour pre-incubation with a range of Compound 1 concentrations, and cells were lysed 2 hours later. Phospho-c-Jun levels were evaluated by western blot. Abbreviations: CAF, cancer-associated fibroblasts; NHLF, normal lung human fibroblasts; TGF-β, transforming growth factor beta.
(§2) Normal human lung fibroblasts (NHLF) and lung cancer-associated fibroblasts (CAF) were maintained in their respective vendor recommended media. For the purposes of comparing the two cell lines, NHLF and lung CAF were both adapted to DMEM+10% fetal bovine serum (FBS) and to RPMI+10% FBS prior to use in the activation assay. Cells were seeded (150,000 NHLF and lung CAF cells) in 12 well plates and allowed to adhere overnight at 37° C., 5% CO2. The next day, cells were pre-treated for […] at 37° C. with DMSO or Compound 1 at 30 μM, 7.5 μM, 1.875 μM, 0.469 μM, 0.117 μM, 0.029 μM, and 0.007 μM. […]
(§3) The levels of phospho-c-Jun in NHLF and non-small cell lung CAF in response to TGF-β in the presence of DMSO or varying concentrations of Compound 1 were summarized in FIG. 7. […] Phospho-c-Jun levels were determined by western blot analysis and were normalized to DMSO treated samples.

[7] = test system: phospho-c-Jun in normal human lung fibroblasts (NHLF); assay: as above; format: cell-based; details: Fibroblast, 10 ng/mL TGF-β for 2 hours, western blot, read-out: EC50 on phospho-c-Jun levels
Protocol: as §1, §2, §3

In the case of `C[C@@H]1CC[C@@H](Nc2nc(NC(C)(C)C)ncc2C(N)=O)C[C@H]1O` [Compound 1, 2-(tert-butylamino)-4-((1R,3R,4R)-3-hydroxy-4-methylcyclohexylamino)-pyrimidine-5-carboxamide], the “% Reduction in Colony Formation with Compound 1 compared with DMSO, Mean” value (shortened to “% Reduction in Colony Formation”) ([1]; Compound 1, 5 μM) is reported as 62%, the “% Reduction in Colony Formation” value ([1]; Compound 1, 20 μM) is reported as 68% and the “% Reduction in Colony Formation” value ([2]; Compound 1, 5 μM) is reported as 12%. The “% Reduction in Colony Formation” value ([2]; Compound 1, 20 μM) was 24%, the “% Reduction in Colony Formation” value ([3]; Compound 1, 5 μM) was 39% and the “% Reduction in Colony Formation” value ([3]; Compound 1, 20 μM) was 28%. For the same compound, the “% Reduction in Colony Formation” value ([4]; Compound 1, 5 μM) was 31%, the “% Reduction in Colony Formation” value ([4]; Compound 1, 20 μM) was 27% and the “% Reduction in Colony Formation” value ([5]; Compound 1, 5 μM) was 56%. The “% Reduction in Colony Formation” value ([5]; Compound 1, 20 μM) was 54%, the EC50 [6] was 330 nM and the EC50 [7] was 350 nM.
